Reference: the NIST ThermoML archive (doi:10.1016/j.fluid.2016.02.028)
± gives the expanded uncertainty stated by the source.

Settings: 298.15 K; 101.33 kPa; Liquid; Vibrating tube method

| mass density [kg/m3] | SMILES |
| --- | --- |
| 873.71 ± 2 | c1ccccc1 [benzene] |
| 698.86 ± 2 | CCCCCCCC [octane] |
| 726.15 ± 2 | CCCCCCCCCC [decane] |

| SMILES | mass density [kg/m3] |
| --- | --- |
| CCCC[N+](C)(CCCC)CCCC.O=S(=O)([N-]S(=O)(=O)C(F)(F)F)C(F)(F)F [tributylmethylammonium bis((trifluoromethyl)sulfonyl)imide] | 1261.65 ± 6 |
